Reference: PubChem BioAssay (NCI)
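In this assay, cells in 96-well plates receive the compound at five concentrations for 48 hours. Endpoints are linearly interpolated between the surrounding concentrations. The concentration for 50% growth inhibition is given as GI50. TGI: total growth inhibition.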

How the values were obtained:
Assay in all cases: growth of human tumour cells (NCI), 48 h
[1] = test system: T-47D breast
[2] = test system: OVCAR-8 ovarian
[3] = test system: K-562 leukemia
[4] = test system: MDA-MB-231 breast
[5] = test system: MDA-MB-468 breast
[6] = test system: SNB-19 CNS
[7] = test system: SK-MEL-28 melanoma
[8] = test system: IGROV1 ovarian
[9] = test system: PC-3 prostate
[10] = test system: KM12 colon
[11] = test system: HL-60(TB) leukemia
[12] = test system: ACHN renal
[13] = test system: NCI-H23 lung
[14] = test system: MCF7 breast
[15] = test system: OVCAR-5 ovarian
[16] = test system: OVCAR-3 ovarian
[17] = test system: HS 578T breast
[18] = test system: NCI-H522 lung
[19] = test system: OVCAR-4 ovarian
[20] = test system: HCT-15 colon
[21] = test system: SF-539 CNS
[22] = test system: COLO 205 colon
[23] = test system: NCI-H226 lung
[24] = test system: SNB-75 CNS
[25] = test system: UACC-62 melanoma
[26] = test system: BT-549 breast
[27] = test system: CAKI-1 renal
[28] = test system: DU-145 prostate
[29] = test system: HOP-92 NSCLC
[30] = test system: M14 melanoma
[31] = test system: MALME-3M melanoma
[32] = test system: SK-MEL-5 melanoma
[33] = test system: HT29 colon
[34] = test system: SK-OV-3 ovarian
[35] = test system: SN12C renal
[36] = test system: A549 NSCLC
[37] = test system: SR leukemia
[38] = test system: MOLT-4 leukemia
[39] = test system: CCRF-CEM leukemia
[40] = test system: SF-295 CNS
[41] = test system: MDA-MB-435
[42] = test system: UO-31 renal
[43] = test system: A498 renal
[44] = test system: UACC-257 melanoma
[45] = test system: 786-0 renal
[46] = test system: RXF 393 renal
[47] = test system: NCI/ADR-RES ovarian
[48] = test system: SF-268 CNS
[49] = test system: SK-MEL-2 melanoma
[50] = test system: U251 CNS
[51] = test system: RPMI-8226 leukemia
[52] = test system: LOX IMVI melanoma
[53] = test system: HOP-62 NSCLC
[54] = test system: NCI-H460 lung
[55] = test system: SW-620 colon
[56] = test system: TK-10 renal
[57] = test system: HCC-2998 colon
[58] = test system: HCT-116 colon
[59] = test system: EKVX NSCLC

`CN1CCc2c(sc3ncnc(N/N=C/c4cccc(Cl)c4Cl)c23)C1` gave a GI50 [1] of 5.55 µM, a TGI [1] of 18.3 µM and a GI50 [2] of 5.81 µM. The TGI [2] was 17.8 µM, the GI50 [3] was 4.42 µM and the TGI [3] was 15.1 µM. The GI50 [4] was 3.88 µM, the TGI [4] was 8.01 µM and the GI50 [5] was 3.19 µM. The TGI [5] was 10.6 µM, the GI50 [6] was 5.61 µM and the TGI [6] was 18.2 µM. For the same molecule, the GI50 [7] was 13.7 µM, the TGI [7] was > 24 µM and the GI50 [8] was 5.68 µM. The TGI [8] was 15.4 µM, the GI50 [9] was > 24 µM and the TGI [9] was > 24 µM. The GI50 [10] was > 24 µM, the TGI [10] was > 24 µM and the GI50 [11] was 4.01 µM. For the same molecule, the TGI [11] was 10 µM, the GI50 [12] was 3.68 µM and the TGI [12] was 7.89 µM. It also gave a GI50 [13] of 5.24 µM, a TGI [13] of 15.4 µM and a GI50 [14] of 4.89 µM. The TGI [14] was 17.6 µM, the GI50 [15] was 8.14 µM and the TGI [15] was > 24 µM. The GI50 [16] was 4.77 µM, the TGI [16] was 13.8 µM and the GI50 [17] was 6.56 µM. For the same molecule, the TGI [17] was 22.9 µM, the GI50 [18] was 9.89 µM and the TGI [18] was > 24 µM. For the same molecule, the GI50 [19] was 6.54 µM, the TGI [19] was > 24 µM and the GI50 [20] was 4.76 µM. The TGI [20] was 17.1 µM, the GI50 [21] was 3.83 µM and the TGI [21] was 7.3 µM. It also gave a GI50 [22] of 4.34 µM, a TGI [22] of 9.78 µM and a GI50 [23] of 11.6 µM. The TGI [23] was > 24 µM, the GI50 [24] was 5.12 µM and the TGI [24] was 21.4 µM. For the same molecule, the GI50 [25] was > 24 µM, the TGI [25] was > 24 µM and the GI50 [26] was 4.13 µM. For the same molecule, the TGI [26] was > 24 µM, the GI50 [27] was 4.49 µM and the TGI [27] was 11.4 µM. For the same molecule, the GI50 [28] was 8.34 µM, the TGI [28] was > 24 µM and the GI50 [29] was 4.92 µM. The TGI [29] was > 24 µM, the GI50 [30] was 12.8 µM and the TGI [30] was > 24 µM. For the same molecule, the GI50 [31] was 7.15 µM, the TGI [31] was > 24 µM and the GI50 [32] was 12.9 µM. For the same molecule, the TGI [32] was > 24 µM, the GI50 [33] was 4.16 µM and the TGI [33] was 9.55 µM. The GI50 [34] was > 24 µM, the TGI [34] was > 24 µM and the GI50 [35] was 5.58 µM. For the same molecule, the TGI [35] was 16.8 µM, the GI50 [36] was 7.79 µM and the TGI [36] was > 24 µM. The GI50 [37] was 3.54 µM, the TGI [37] was > 24 µM and the GI50 [38] was 7.65 µM. The TGI [38] was > 24 µM, the GI50 [39] was 4.41 µM and the TGI [39] was > 24 µM. It also gave a GI50 [40] of 3.82 µM, a TGI [40] of 8.23 µM and a GI50 [41] of 13.6 µM. For the same molecule, the TGI [41] was > 24 µM, the GI50 [42] was 6.39 µM and the TGI [42] was > 24 µM. The GI50 [43] was > 24 µM, the TGI [43] was > 24 µM and the GI50 [44] was > 24 µM. For the same molecule, the TGI [44] was > 24 µM, the GI50 [45] was 4.79 µM and the TGI [45] was 10 µM. It also gave a GI50 [46] of 3.19 µM, a TGI [46] of 12.3 µM and a GI50 [47] of 4.76 µM. For the same molecule, the TGI [47] was 15.3 µM, the GI50 [48] was 10.7 µM and the TGI [48] was > 24 µM. The GI50 [49] was > 24 µM, the TGI [49] was > 24 µM and the GI50 [50] was 4.83 µM. For the same molecule, the TGI [50] was 10.8 µM, the GI50 [51] was 6.69 µM and the TGI [51] was > 24 µM. The GI50 [52] was 3.52 µM, the TGI [52] was 6.83 µM and the GI50 [53] was 4.45 µM. The TGI [53] was 10.7 µM, the GI50 [54] was 7.54 µM and the TGI [54] was > 24 µM. The GI50 [55] was 7.79 µM, the TGI [55] was > 24 µM and the GI50 [56] was 5.5 µM. It also gave a TGI [56] of 18.2 µM, a GI50 [57] of 4.47 µM and a TGI [57] of 10.7 µM. The GI50 [58] was 4.49 µM, the TGI [58] was 11.2 µM and the GI50 [59] was 5.09 µM. For the same molecule, the TGI [59] was 17.6 µM.
